Measured values taken from patent US8372443B2, “Methods and compositions for the treatment and prevention of citrus greening disease” (priority 2008, dated 2013).

How the values were obtained:
D. citri [1] = assay: 4-choice olfactometer behavioral bioassay; assay type: in vivo, Diaphorina citri; conditions: for t (percentages of repelled versus attracted D. citri, student's t-test): laboratory air, 1.5 h
Procedure: Adult D. citri used for the behavioral bioassays were drawn from a continuously reared culture at the University of Florida Citrus Research and Education Center (Lake Alfred, USA) and established in 2000 from field populations in Polk Co., FL, USA (28.0′N, 81.9′W) prior to the discovery of citrus greening disease in FL. This culture is maintained on sour orange (Citrus aurantium L.) and ‘Hamlin’ orange [C. sinensis (L.)] seedlings at 27±1° C., 63±2% RH, and L14:D10 photoperiod. Freshly emerged unsexed adult psyllids were first placed on citrus seedlings in Plexiglass cages for up to 7 d for sexual maturation prior to use in experiments.
Husbandry methods for the ‘white’ guava and ‘Hamlin’ citrus plants used in these investigations have been described previously (Rouseff et al., 2008). ‘Hamlin’ citrus was selected for analysis because it is one of the most highly cultivated citrus varieties in Florida. Half of the samples were gently crushed (using a clean glass rod) to simulate plant damage and the remaining half were not crushed. All samples ([…] leaf flush/sample) were wrapped in Kim wipes (Kimberly-Clark®, Ontario, Canada) and placed in 2.5 cm×12.5 cm extending glass tubes of a 4-choice olfactometer [Analytical Research Systems, ARS (Gainesville, Fla.)], for behavioral investigations described below.
Behavioral responses of D. citri to citrus volatiles with or without guava or DMDS volatiles were quantified using a 4-choice olfactometer (Analytical Research Systems, Inc. (ARS), Gainesville, Fla., USA) based on the design of Pettersson (1970), Vet et al. (1983) and Kalule & Wright (2004). The olfactometer consists of a 5 cm×30 cm×30 cm stage on four 2.5 cm×15 cm legs with extending orifices on four sides of the stage. Charcoal-purified and humidified air was drawn through these arms via a vacuum pump creating four potential odor fields. Air pulled through the olfactometer was evacuated through a central orifice on the floor of the stage. During each experimental run, two of the four orifices on the sides of the stage were designated for odor stimuli treatments and the two others were left as blank. […] The effect of repellent chemicals was measured by adding guava leaves or a formulation of synthetic DMDS to citrus flush in two arms of the olfactometer as described below. […]
The behavioral response of adult D. citri to clean laboratory air was first investigated to 4 blank arms of the olfactometer as a negative control to ensure no positional bias. Thereafter, D. citri response was measured to citrus leaf volatiles with and without volatiles from guava leaves or synthetic DMDS. […]

D. citri [2] = assay: Y-tube olfactometer test; assay type: in vivo, Diaphorina citri
Procedure: In order to confirm the repellent effect of synthetic DMDS against D. citri, an additional study using a Y-tube olfactometer (ARS, Gainesville, Fla., USA) was conducted. The Y-tube consisted of a central stem (13.5 cm long, 2.4 cm o.d.) with two lateral arms (5.75 cm long, 2.4 cm o.d.). The lateral arms were connected to extending glass tubes (14.5 cm long, 1.9 cm o.d.) with inlayed sieves (5.25 cm away from connection) to prevent insect escape and serve as an end point of the lateral arms. Charcoal-filtered laboratory air was passed from an air pump, into each of the extending arms of the olfactometer at a rate 100 mL/min. […]
Adult psyllids that oriented to any of the four arms of the olfactometer were categorized as attracted and those that remained in the olfactometer's central orifice (release point) until the 1.5 h experimental period elapsed as repelled. […] Subsequently, data obtained for D. citri orientation to the four arms (two volatile sources and two laboratory air) was analyzed for each treatment using one-way step-wise ANOVA followed by Tukey's HSD test (P<0.05, SAS Institute Inc., 2003). The data obtained from the Y-tube olfactometer bioassays was analyzed using Chi-square (χ^2) analyses (Parker, 1979) to compare between the numbers of attracted versus repelled D. citri (P<0.05).

[3] = system: Mediterranean fruit fly, Ceratitis capitata; conditions: literature reference 23; cited from earlier work

SMILES	repellence of adult D. citri at the selected dosage (preliminary investigation) (D. citri [1]; 100 μL of a 4.3 μg/μL (w/v) solution in mineral oil on cotton wick, compared with lower dosages on a log scale (data not shown))	t (percentages of repelled versus attracted D. citri, student's t-test) (D. citri [1]; Experiment 2: arms laboratory air, intact citrus, DMDS, 100 μL of 4.3 μg/μL DMDS in mineral oil)	t (percentages of repelled versus attracted D. citri, student's t-test) (D. citri [1]; Experiment 3: arms laboratory air, crushed citrus, DMDS)	t (percentages of repelled versus attracted D. citri, student's t-test) (D. citri [1]; Experiment 4: arms laboratory air, mineral oil, DMDS (DMDS only))	effect on D. citri's response to citrus flush volatiles (D. citri [2]; Y-tube first experiment: 100 μL DMDS solution in mineral oil plus ~3.5 g citrus flush in both arms versus citrus alone, χ2=2.57, P=0.109)	percentage of D. citri choosing the arm releasing clean air versus DMDS (D. citri [2]; Y-tube second experiment: DMDS in mineral oil in one arm, clean laboratory air in the other, 300 s, χ2=5.0, P=0.025) [%]	reported behavioural effect on Mediterranean fruit fly [3]
CSSC [DMDS, dimethyl disulfide]	optimally repel	3.05	7.23	6.25	significantly inhibited	~75	
CC1=CC[C@H]2[C@H]3[C@@H]1[C@]2(C)CC[C@H]3C(C)C [α-Copaene]							attractant
